Measured values published in PMC9960827, “Cloning and Characterization of Trypanosoma congolense and T. vivax Nucleoside Transporters Reveal the Potential of P1-Type Carriers for the Discovery of Broad-Spectrum Nucleoside-Based Therapeutics against Animal African Trypanosomiasis” (International Journal of Molecular Sciences, 2023).
Several values for one entry are separate records, joined by “and”; a condition that tells them apart may be missing. Equal values may be shown once. Read-outs that look alike come from different tables or passages of the source.

What was measured:
[1] = test system: T. congolense adenosine transporter; experiment: [3H]-adenosine uptake and its inhibition in T. congolense IL3000 bloodstream forms; format: cell-based, Trypanosoma congolense
Protocol: (§1) Uptake assays using radiolabeled trypanocides and/or nucleosides were carried out as described previously. Briefly, parasite cultures were harvested, washed twice in assay buffer (33 mM HEPES, 98 mM NaCl, 4.6 mM KCl, 0.5 mM CaCl2, 0.07 mM MgSO4, 5.8 mM NaH3PO4, 0.03 mM MgCl2, 23 mM NaHCO3, 14 mM D-glucose, pH 7.3), then resuspended and adjusted to a density of 1 × 10^8 cells/mL in assay buffer. The radiolabeled permeant in the presence or absence of different concentrations of potential inhibitors reconstituted in 100 μL assay buffer was deposited on top of 250 μL oil mix in microcentrifuge tubes; 1 × 10^7 parasites in 100 μL assay buffer were added to the tube and incubated for a pre-determined interval. The reaction was stopped by the addition of 1 mL of a high concentration of ice-cold unlabeled substrate in assay buffer (‘stop solution’) and centrifugation, or by immediate centrifugation at […] as appropriate. The microcentrifuge tubes were flash-frozen, and the bottom of each tube containing the cell pellet was cut off and transferred to a scintillation vial. Cell pellets were lysed in 2% SDS, after which scintillation fluid (Scintlogic U, Lablogic) was added, followed by overnight incubation in the dark. Scintillation was measured in a 300SL (Hidex) scintillation counter (Hidex). All the assays were conducted in triplicate and analysis was carried out using Microsoft Excel and GraphPad Prism. All kinetic parameters were obtained on at least 3 separate occasions.
(§2) The dose-dependent uptake assay allowed for the affinity of nucleoside analogs to different nucleoside transporters to be determined by measuring the extent to which the analogs compete with and inhibit the uptake of radiolabel adenosine. This allowed for the determination of biochemical parameters such as Km and Vmax through the application of the Michaelis–Menten equation V0 = Vmax([substrate]/([substrate] + Km)). The 50% Inhibitory Concentration (IC50) of the purines and pyrimidines and their analogs was determined from non-linear regression to sigmoid curves with variable slope (Prism 8), and the IC50 of the inhibitor and the Km of the labeled permeant were then used to calculate the inhibition constant (Ki) of the analogs through the Cheng–Prusoff equation: Ki = IC50/(1 + (L/Km)), where L denotes the radiolabel concentration. The calculated Ki was in turn used to determine the Gibbs free energy (ΔG^0) of the inhibitor–transporter interaction using the equation: ΔG^0 = -RTln(Ki), where R represents the gas constant and T symbolizes the absolute temperature in Kelvin [104].

TcoAT1 = format: cell-based, Trypanosoma congolense; conditions: for ΔG0: Gibbs free energy of binding, from Km or Ki; for Ki: 10 s, IC50 converted to Ki, read-out: Ki on the transport of [3H]-adenosine
Excerpt: (§3) The information for the T. congolense adenosine transporter (TcoAT1) and four putative T. vivax nucleoside transporters was obtained in the TritrypDB (tritrypdb.org/tritrypdb) genome database. Primers were designed to flank each gene upstream of the 5′ end (forward) and downstream of the 3′ end (reverse) as described (primer sequences in Supplementary Table S2). Following amplification from the genomic DNA of T. congolense or T. vivax, DNA for each extracted gene was ligated into the pNUS-HcN expression vector doubly digested with NdeI using the NEBuilder kit according to the manufacturer’s instructions (New England Biolabs). Construct was transformed into competent E. coli cells, and ligation was confirmed by restriction enzyme digestion of isolated plasmid DNA followed by Sanger sequencing (Source BioScience, Nottingham, UK). Confirmed plasmids were then transfected into L. mexicana cell line in which both NT1 and NT2 were doubly knocked out (SUPKO) and derived from L. mexicana Cas9 [64] as described. Clones grown in medium containing 50 μg/mL neomycin (G418) were collected for further confirmation by PCR with genomic DNA using a forward primer of the transporter gene and a reverse primer of the plasmid.
as §1, §2

TvxNT3 = TvxNT3 (Trypanosoma vivax, UniProt F9WV62); experiment: cell-based; format: cell-based
Excerpt: as §3, §1, §2

[2] = test system: T. b. brucei P1 (TbP1/NT2); conditions: cited from earlier work
TbNT10 = test system: TbNT10; parameters: method as in Al-Salabi et al. [40]; conditions: called Km values; ref Al-Salabi et al. [40]; cited from earlier work
L. mexicana Cas9 = experiment: Resazurin drug sensitivity assay, LmexCas9; format: cell-based, Leishmania mexicana; conditions: read-out: LmexCas9 EC50
Method in brief: (§4)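 Dose-response data were plotted against a sigmoid equation allowing a variable slope, and the EC50 was read from that fit. Replicates were independent determinations on separate days, at least three per value, then averaged.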

L. mexicana SUPKO+TcoAT1 = experiment: microbe, parasite or virus in culture; format: cell-based, Leishmania mexicana; conditions: for EC50: read-out: SUPKO+TcoAT1 EC50
Method in brief: as §4

L. mexicana SUPKO+TvxNT3 = experiment: microbe, parasite or virus in culture; format: cell-based, Leishmania mexicana; conditions: for EC50: read-out: SUPKO+TvxNT3 EC50
Method in brief: as §4

L. mexicana SUPKO = experiment: microbe, parasite or virus in culture; format: cell-based, Leishmania mexicana; conditions: for SUPKO RF (Cas9): Resistance Factor = EC50(SUPKO)/EC50(Cas9)
Method in brief: as §4

T. congolense 6C3 [3] = experiment: microbe, parasite or virus in culture; format: cell-based, Trypanosoma congolense; conditions: for T. congolense 6C3 RF: resistance factor = EC50 (test strain)/EC50(control strain); for EC50: Trypanosoma congolense, diminazene resistant strain, resazurin, read-out: T. congolense 6C3 EC50
Protocol: (§5) EC50 values were determined by plotting to an equation for a sigmoid curve with variable slope (GraphPad Prism 8). All values were the average of at least three independent determinations on different days.

T. vivax [4] = experiment: T. vivax EC50 (from Mabille et al.); format: cell-based, Trypanosoma vivax; conditions: from Table 8 data
[5] = test system: human embryonic kidney (HEK) cells; experiment: Resazurin toxicity assay on human embryonic kidney cells; format: cell-based; conditions: for SI T. congolense: selectivity index = EC50 (HEK cells)/EC50 (T. congolense); for SI T. equiperdum: selectivity index = EC50 (HEK cells)/EC50 (T. equiperdum); for SI T. evansi: selectivity index = EC50 (HEK cells)/EC50 (T. evansi)
Protocol: as §5

T. congolense IL3000 [6] = test system: T. congolense IL3000; parameters: method as in Hulpia et al. [38]; conditions: values marked *; ref Hulpia et al. [38]; cited from earlier work
T. congolense 6C3 [7] = test system: T. congolense 6C3; parameters: method as in Hulpia et al. [38]; conditions: values marked *; ref Hulpia et al. [38]; cited from earlier work
T. vivax [8] = test system: T. vivax; parameters: method as in Mabille et al. [69]; conditions: added for comparison only; ref Mabille et al. [69]; cited from earlier work
T.b.b. B48 [9] = test system: T.b.b. B48; parameters: method as in Hulpia et al. [38]; conditions: compound marked *; ref Hulpia et al. [38]; cited from earlier work
T. evansi [10] = test system: T. evansi; parameters: method as in Hulpia et al. [38]; conditions: compound marked *; ref Hulpia et al. [38]; cited from earlier work
T. equiperdum [11] = test system: T. equiperdum; parameters: method as in Hulpia et al. [38]; conditions: compound marked *; ref Hulpia et al. [38]; cited from earlier work
T. congolense IL3000 [12] = experiment: Alamar Blue (resazurin) assay, T. congolense IL3000; format: cell-based, Trypanosoma congolense; conditions: Trypanosoma congolense, read-out: T. congolense IL3000 EC50
Protocol: as §5

T. brucei TbAT1-KO = conditions: cited from earlier work
T.b.b. B48 [13] = experiment: Alamar Blue (resazurin) assay, T. b. brucei B48; format: cell-based, Trypanosoma brucei brucei; conditions: Trypanosoma brucei, read-out: T.b.b. B48 EC50
Protocol: as §5

T. evansi [14] = experiment: Alamar Blue (resazurin) assay, T. evansi; format: cell-based, Trypanosoma evansi; conditions: Trypanosoma evansi, read-out: T. evansi EC50
Protocol: as §5

T. equiperdum [15] = experiment: Alamar Blue (resazurin) assay, T. equiperdum; format: cell-based, Trypanosoma equiperdum; conditions: Trypanosoma equiperdum, read-out: T. equiperdum EC50
Protocol: as §5

[16] = Resazurin toxicity assay on human embryonic kidney cells; format: cell-based; conditions: human
Protocol: as §5

[17] = Leishmania mexicana, read-out: SUPKO EC50, resazurin, promastigotes
[18] = Resistance Factor relative to SUPKO

TvxNT3, sequence (F9WV62 entry or part of it): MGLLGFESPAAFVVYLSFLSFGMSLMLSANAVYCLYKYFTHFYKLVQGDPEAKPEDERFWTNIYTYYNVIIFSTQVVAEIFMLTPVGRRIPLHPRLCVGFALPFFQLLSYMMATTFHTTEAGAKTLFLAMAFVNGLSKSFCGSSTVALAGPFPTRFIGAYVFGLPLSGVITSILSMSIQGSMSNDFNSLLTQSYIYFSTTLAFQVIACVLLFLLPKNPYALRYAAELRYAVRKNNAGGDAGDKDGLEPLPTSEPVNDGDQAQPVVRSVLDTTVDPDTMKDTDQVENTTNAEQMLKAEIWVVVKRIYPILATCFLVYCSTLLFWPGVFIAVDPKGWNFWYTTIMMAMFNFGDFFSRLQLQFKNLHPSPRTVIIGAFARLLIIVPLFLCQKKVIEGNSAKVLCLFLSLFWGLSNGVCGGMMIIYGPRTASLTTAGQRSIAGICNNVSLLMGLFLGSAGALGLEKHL

Structure (SMILES): Nc1ncnc2c1ncn2[C@@H]1O[C@H](CO)[C@@H](O)[C@H]1O [Adenosine]
- Km ([1]; 0.05 µM [3H]-adenosine, 30 s incubation, bloodstream forms): 0.48 ± 0.03 µM
- rate of adenosine uptake ([1]; 50 nM [3H]-adenosine, cultured IL3000): 0.014 ± 0.0037 pmol(10^7 cells)^−1s^−1
- Vmax of adenosine uptake ([1]; 30 s incubation): 0.11 ± 0.02 pmol(10^7 cells)^−1s^−1
- ΔG0, Gibbs free energy of interaction ([1]; calculated from Km or Ki): -8.6 kcal/mol
- Km (TcoAT1; 0.05 µM [3H]-adenosine, 10 s incubation): 0.42 ± 0.03 µM
- ΔG0 (TcoAT1): -8.7 kcal/mol
- level of uptake of adenosine (TvxNT3; 50 nM [3H]-adenosine, SUPKO+TvxNT3): 3.9 × 10^−3 pmol(10^7 cells)^−1s^−1
- remaining activity at 100 µM (TvxNT3; read-out: [3H]-adenosine uptake remaining in presence of inhibitor): < 25%
- Km ([2]; T. b. brucei bloodstream forms, read-out: Tbb P1 Km for adenosine): 0.36 ± 0.05 µM
- Tbb P1 ΔG0 [2]: -8.8 kcal/mol
- Km (TbNT10): 0.41 µM

Structure (SMILES): Nc1ncnc2c1c(-c1ccccn1)cn2[C@@H]1O[C@H](CO)[C@@H](O)[C@H]1O [TH1008]
- EC50 (L. mexicana Cas9; resazurin, promastigotes): 11.7 ± 0.5 µM
- EC50 (L. mexicana SUPKO+TcoAT1; resazurin, promastigotes): > 100 µM
- EC50 (L. mexicana SUPKO+TvxNT3; resazurin, promastigotes): > 100 µM
- SUPKO RF (Cas9) (L. mexicana SUPKO): >8.5
- EC50 (L. mexicana SUPKO; resazurin, promastigotes, read-out: SUPKO EC50): > 100 µM
- T. congolense 6C3 RF (T. congolense 6C3 [3]): 0.33
- fold higher EC50 against T. vivax compared to T. congolense (T. vivax [4]): 10–165 fold
- EC50 ([5]; resazurin, 96 well plates, read-out: HEK EC50): 18.5 ± 1.5 µM
- SI T. congolense [5]: 110
- SI T. equiperdum [5]: 303
- SI T. evansi [5]: 466
- EC50 (T. congolense IL3000 [6]): 0.17 ± 0.05 µM
- EC50 (T. congolense 6C3 [7]): 0.056 ± 0.013 µM
- EC50 (T. vivax [8]): 12.9 ± 4.4 µM
- EC50 (T.b.b. B48 [9]): 0.39 ± 0.03 µM
- EC50 (T. evansi [10]): 0.04 ± 0.005 µM
- EC50 (T. equiperdum [11]): 0.061 ± 0.005 µM

Structure (SMILES): Nc1ncnc2c1ncn2[C@@H]1O[C@H](CO)C[C@H]1O [Cordycepin, 3′-deoxyadenosine]
- Ki ([1]; 0.05 µM [3H]-adenosine, 30 s, IC50 converted to Ki, read-out: Ki on the transport of [3H]-adenosine): 12 ± 2 µM
- fold difference in affinity compared to adenosine (TcoAT1): 10 fold
- Ki (TcoAT1; 0.05 µM [3H]-adenosine): 4.59 µM and 4.6 µM
- ΔG0 (TcoAT1): -7.29 kcal/mol
- δ(ΔG0) (TcoAT1; loss of Gibbs free energy of binding relative to the parent nucleoside): 1.42 kcal/mol
- δ(ΔG0) (TvxNT3; difference in ΔG0 relative to the parent purine (adenosine or inosine)): -1.07 kcal/mol
- EC50 (L. mexicana Cas9; Leishmania mexicana): 91.6 ± 12.9 µM
- EC50 (L. mexicana SUPKO+TcoAT1; Leishmania mexicana): > 100 µM
- EC50 (L. mexicana SUPKO+TvxNT3; Leishmania mexicana): > 100 µM
- EC50 (L. mexicana SUPKO; [17]): > 100 µM
- SUPKO RF (Cas9) (L. mexicana SUPKO): >1.09
- EC50 (T. congolense IL3000 [12]; BSF, resazurin): 2.46 ± 0.42 µM
- EC50 (T. congolense 6C3 [3]): 2.16 ± 0.44 µM
- T. congolense 6C3 RF (T. congolense 6C3 [3]): 0.88
- Ki ([2]; T. b. brucei bloodstream forms, read-out: Tbb P1 Ki): 210 ± 48 µM
- Tbb P1 ΔG0 [2]: -5.02 kcal/mol
- EC50 (T. vivax [8]): 0.12 ± 0.02 µM
- resistance of the TbAT1-KO strain (T. brucei TbAT1-KO): 17 fold

Structure (SMILES): Nc1ncnc2c1c(Br)cn2[C@@H]1O[C@H](CO)C[C@H]1O [FH7429_u, 7-bromo-7-deaza-3′-deoxyadenosine]
- Ki (TcoAT1; 0.05 µM [3H]-adenosine): 259 ± 11 µM
- ΔG0 (TcoAT1): -4.9 kcal/mol
- ΔG0 (TvxNT3; Gibbs free energy of interaction, from Km or Ki): -5.14 kcal/mol
- EC50 (L. mexicana Cas9; Leishmania mexicana): 27.3 ± 7 µM
- EC50 (L. mexicana SUPKO+TcoAT1; Leishmania mexicana): 27 ± 5.8 µM
- SUPKO+TcoAT1 RF (SUPKO) (L. mexicana SUPKO+TcoAT1; [18]): >7.4
- EC50 (L. mexicana SUPKO+TvxNT3; Leishmania mexicana): 42.9 ± 12 µM
- SUPKO+TvxNT3 RF (SUPKO) (L. mexicana SUPKO+TvxNT3; [18]): >2.33
- EC50 (L. mexicana SUPKO; [17]): > 250 µM
- SUPKO RF (Cas9) (L. mexicana SUPKO): >3.6
- EC50 (T. congolense IL3000 [12]): 0.00069 ± 7e-05 µM
- EC50 (T. congolense 6C3 [3]): 0.00049 ± 9e-05 µM
- T. congolense 6C3 RF (T. congolense 6C3 [3]): 0.71
- EC50 (T.b.b. B48 [13]): 0.0048 ± 0.0005 µM
- EC50 (T. evansi [14]): 0.0009 ± 0.00022 µM
- EC50 (T. equiperdum [15]): 0.00051 ± 7e-05 µM
- EC50 [16]: 2.18 ± 0.41 µM
- SI T. congolense [5]: 3158
- SI T. equiperdum [5]: 4271
- SI T. evansi [5]: 2430
- EC50 (T. vivax [8]): 0.018 ± 0.003 µM
